One data set addresses PKA (Homo sapiens, UniProt P17612). Particulars: 1 μM; Run 1, Run 2.
A further data set concerns the target PKN1/PRK1 (Homo sapiens, UniProt Q16512). Particulars: 1 μM; Run 1, Run 2.
A further data set deals with T1, CYP2D6 (Homo sapiens, UniProt P10635).
T1 construct: tissue Corning 452117; host or cells: pooled human liver microsomes (UltraPool HLM 150, mixed gender)
As to the kind of experiment: CYP inhibition assay. In kind it is in vitro ADME. Particulars: human liver microsomes. In general terms: Liver microsomes are a subcellular fraction often used to study metabolism.

The target in another data set is T2, MST1/STK4 (Homo sapiens, UniProt Q13043).
T2 sequence (Q13043 1-487): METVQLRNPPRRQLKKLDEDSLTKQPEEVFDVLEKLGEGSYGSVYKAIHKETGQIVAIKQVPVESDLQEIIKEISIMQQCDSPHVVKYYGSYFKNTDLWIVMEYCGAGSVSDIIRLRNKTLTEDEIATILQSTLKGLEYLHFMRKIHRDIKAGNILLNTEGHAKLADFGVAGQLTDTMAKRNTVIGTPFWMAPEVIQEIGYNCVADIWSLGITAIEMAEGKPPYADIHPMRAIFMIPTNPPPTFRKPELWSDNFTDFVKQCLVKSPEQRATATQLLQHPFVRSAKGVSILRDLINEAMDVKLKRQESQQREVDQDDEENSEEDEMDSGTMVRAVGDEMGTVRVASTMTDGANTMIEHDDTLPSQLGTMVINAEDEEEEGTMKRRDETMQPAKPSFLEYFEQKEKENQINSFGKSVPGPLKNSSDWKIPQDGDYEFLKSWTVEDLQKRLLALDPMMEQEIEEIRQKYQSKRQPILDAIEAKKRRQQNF
Briefly: biochemical. To be noted: read-out: % enzyme activity, 1 μM; Run 1, Run 2.

A further data set has as its target MST3/STK24 (Homo sapiens, UniProt Q9Y6E0). Particulars: 1 μM; Run 1, Run 2.
In a further data set the target is T3, MASTL (Homo sapiens, UniProt Q96GX5).
T3 sequence (Q96GX5 1-879): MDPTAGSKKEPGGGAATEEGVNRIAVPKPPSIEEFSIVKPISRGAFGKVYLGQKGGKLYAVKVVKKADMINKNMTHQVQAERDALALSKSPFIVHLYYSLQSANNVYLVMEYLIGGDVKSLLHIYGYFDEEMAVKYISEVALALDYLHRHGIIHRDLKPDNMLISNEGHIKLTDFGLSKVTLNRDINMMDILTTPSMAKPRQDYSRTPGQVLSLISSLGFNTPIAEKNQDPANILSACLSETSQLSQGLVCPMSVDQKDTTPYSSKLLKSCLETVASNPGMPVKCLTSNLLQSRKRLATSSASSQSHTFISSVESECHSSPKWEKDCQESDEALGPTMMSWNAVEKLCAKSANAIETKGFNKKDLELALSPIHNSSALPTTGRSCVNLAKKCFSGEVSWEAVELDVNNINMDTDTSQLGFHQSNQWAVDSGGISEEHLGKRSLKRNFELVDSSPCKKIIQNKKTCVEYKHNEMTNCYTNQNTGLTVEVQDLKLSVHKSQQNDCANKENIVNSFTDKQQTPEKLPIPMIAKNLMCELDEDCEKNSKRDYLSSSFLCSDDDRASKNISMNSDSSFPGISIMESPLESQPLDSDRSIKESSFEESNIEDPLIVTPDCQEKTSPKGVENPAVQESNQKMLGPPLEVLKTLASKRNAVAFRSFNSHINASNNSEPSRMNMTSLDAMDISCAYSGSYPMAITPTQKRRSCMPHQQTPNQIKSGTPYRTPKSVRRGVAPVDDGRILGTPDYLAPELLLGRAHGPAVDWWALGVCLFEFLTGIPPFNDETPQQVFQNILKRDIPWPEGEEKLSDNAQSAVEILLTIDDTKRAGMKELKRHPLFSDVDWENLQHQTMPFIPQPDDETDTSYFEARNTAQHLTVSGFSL
As to the kind of experiment: biochemical. Particulars: read-out: % enzyme activity, 1 μM; Run 1, Run 2.

A further data set addresses MNK1 (Homo sapiens, UniProt Q9BUB5). Briefly: biochemical. To be noted: read-out: % enzyme activity, 1 μM; Run 1, Run 2.
The target in the next data set is CAMK1b (Homo sapiens, UniProt Q6P2M8). As to the kind of experiment: biochemical. To be noted: read-out: % enzyme activity, 1 μM; Run 1, Run 2.
In a further data set the target is MLK3/MAP3K11 (Homo sapiens, UniProt Q16584). As to the kind of experiment: biochemical. To be noted: read-out: % enzyme activity, 1 μM; Run 1, Run 2.
For a further data set, the target named is PKCd (Homo sapiens, UniProt Q05655). Particulars: 1 μM; Run 1, Run 2.
The target of a further data set is T4, MAPKAPK5/PRAK (Homo sapiens, UniProt Q8IW41).
T4 sequence (Q8IW41 1-473): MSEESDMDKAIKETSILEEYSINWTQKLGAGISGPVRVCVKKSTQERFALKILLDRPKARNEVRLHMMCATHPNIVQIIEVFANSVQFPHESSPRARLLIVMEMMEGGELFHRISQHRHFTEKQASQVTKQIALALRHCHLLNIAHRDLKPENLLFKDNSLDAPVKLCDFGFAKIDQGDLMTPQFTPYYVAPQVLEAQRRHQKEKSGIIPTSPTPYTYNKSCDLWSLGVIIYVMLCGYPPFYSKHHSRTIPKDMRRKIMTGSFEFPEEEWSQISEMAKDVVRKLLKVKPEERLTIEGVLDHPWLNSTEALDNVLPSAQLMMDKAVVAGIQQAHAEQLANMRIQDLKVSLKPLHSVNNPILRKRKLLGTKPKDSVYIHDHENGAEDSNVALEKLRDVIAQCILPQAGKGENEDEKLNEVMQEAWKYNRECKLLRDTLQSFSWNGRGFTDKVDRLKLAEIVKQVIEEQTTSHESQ
To be noted: 1 μM; Run 1, Run 2.

Another data set deals with DAPK2 (Homo sapiens, UniProt Q9UIK4). Particulars: 1 μM; Run 1, Run 2.
For a further data set, the target named is MAPKAPK2 (Homo sapiens, UniProt P49137). To be noted: 1 μM; Run 1, Run 2.
The target of the next data set is RSK2 (Homo sapiens, UniProt P51812). Particulars: 1 μM; Run 1, Run 2.

Experimental findings from paper PMC8213057, “Targeting ALK2: An Open Science Approach to Developing Therapeutics for the Treatment of Diffuse Intrinsic Pontine Glioma” (Journal of Medicinal Chemistry, 2020) are described below.

Chain of MLK3/MAP3K11 (Q16584 whole entry): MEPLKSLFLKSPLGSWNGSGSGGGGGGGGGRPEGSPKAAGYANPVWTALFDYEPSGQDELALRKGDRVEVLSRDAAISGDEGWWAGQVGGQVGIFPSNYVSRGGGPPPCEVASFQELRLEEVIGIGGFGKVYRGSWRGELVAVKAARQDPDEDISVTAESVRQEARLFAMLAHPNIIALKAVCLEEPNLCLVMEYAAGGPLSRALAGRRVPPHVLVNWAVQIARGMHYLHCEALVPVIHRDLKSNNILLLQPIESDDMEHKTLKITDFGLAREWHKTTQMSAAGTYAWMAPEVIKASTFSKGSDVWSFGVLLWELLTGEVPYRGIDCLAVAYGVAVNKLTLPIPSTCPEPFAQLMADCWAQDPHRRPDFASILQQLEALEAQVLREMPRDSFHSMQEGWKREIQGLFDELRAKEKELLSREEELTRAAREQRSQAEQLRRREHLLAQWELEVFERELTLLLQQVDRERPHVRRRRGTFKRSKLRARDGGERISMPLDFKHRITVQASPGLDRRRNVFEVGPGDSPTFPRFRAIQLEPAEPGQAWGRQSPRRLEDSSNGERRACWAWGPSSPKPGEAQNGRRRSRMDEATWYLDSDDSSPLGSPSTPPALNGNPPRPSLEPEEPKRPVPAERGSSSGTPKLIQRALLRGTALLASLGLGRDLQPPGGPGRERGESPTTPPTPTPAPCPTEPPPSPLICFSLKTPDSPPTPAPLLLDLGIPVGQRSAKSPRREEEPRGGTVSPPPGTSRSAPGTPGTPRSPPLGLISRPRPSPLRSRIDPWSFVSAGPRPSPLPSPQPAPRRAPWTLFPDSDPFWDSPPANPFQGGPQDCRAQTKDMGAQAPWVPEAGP
Chain of MST3/STK24 (Q9Y6E0 whole entry): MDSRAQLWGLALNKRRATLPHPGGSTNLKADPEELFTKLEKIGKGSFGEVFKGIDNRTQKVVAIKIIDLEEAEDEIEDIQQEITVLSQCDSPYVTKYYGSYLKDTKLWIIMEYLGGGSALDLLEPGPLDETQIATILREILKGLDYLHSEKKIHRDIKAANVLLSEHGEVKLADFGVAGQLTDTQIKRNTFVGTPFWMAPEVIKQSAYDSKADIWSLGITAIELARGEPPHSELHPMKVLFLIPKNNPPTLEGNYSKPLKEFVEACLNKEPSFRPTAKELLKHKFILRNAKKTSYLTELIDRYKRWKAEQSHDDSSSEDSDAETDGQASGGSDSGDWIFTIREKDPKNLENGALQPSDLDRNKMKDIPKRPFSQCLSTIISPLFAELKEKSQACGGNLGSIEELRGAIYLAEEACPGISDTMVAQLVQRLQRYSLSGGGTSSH
Chain of MNK1 (Q9BUB5 whole entry): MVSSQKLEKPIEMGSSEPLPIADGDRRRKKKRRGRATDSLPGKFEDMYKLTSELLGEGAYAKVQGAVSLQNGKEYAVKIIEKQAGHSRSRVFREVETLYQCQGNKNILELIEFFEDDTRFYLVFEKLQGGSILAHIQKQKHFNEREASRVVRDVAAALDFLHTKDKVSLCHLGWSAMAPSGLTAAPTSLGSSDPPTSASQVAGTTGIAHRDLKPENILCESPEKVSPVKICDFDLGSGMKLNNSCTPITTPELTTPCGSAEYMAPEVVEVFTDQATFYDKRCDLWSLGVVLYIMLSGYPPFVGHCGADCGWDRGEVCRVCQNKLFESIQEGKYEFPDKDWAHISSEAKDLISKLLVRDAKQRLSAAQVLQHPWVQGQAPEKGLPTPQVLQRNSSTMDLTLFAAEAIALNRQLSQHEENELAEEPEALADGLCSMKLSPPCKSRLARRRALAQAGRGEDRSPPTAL
Chain of RSK2 (P51812 whole entry): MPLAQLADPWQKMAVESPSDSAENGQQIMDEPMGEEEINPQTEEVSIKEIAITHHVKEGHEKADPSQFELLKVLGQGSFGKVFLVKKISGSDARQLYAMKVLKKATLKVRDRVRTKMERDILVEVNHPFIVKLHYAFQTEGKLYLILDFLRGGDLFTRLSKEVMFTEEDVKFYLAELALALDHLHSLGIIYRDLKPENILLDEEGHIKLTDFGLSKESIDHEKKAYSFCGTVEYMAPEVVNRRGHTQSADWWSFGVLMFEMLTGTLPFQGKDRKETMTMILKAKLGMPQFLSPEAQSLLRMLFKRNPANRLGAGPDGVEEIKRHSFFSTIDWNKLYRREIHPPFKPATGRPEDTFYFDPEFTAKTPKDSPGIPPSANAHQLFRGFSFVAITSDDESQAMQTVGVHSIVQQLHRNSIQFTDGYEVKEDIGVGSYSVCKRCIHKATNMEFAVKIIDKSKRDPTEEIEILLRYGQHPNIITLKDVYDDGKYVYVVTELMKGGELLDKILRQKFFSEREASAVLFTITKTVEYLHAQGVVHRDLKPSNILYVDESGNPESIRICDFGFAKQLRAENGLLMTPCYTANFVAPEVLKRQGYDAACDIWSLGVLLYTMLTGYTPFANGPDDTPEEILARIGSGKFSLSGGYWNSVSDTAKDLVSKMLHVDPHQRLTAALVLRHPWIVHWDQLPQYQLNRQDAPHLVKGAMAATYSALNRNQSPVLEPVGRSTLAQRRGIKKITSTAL
Chain of PKCd (Q05655 whole entry): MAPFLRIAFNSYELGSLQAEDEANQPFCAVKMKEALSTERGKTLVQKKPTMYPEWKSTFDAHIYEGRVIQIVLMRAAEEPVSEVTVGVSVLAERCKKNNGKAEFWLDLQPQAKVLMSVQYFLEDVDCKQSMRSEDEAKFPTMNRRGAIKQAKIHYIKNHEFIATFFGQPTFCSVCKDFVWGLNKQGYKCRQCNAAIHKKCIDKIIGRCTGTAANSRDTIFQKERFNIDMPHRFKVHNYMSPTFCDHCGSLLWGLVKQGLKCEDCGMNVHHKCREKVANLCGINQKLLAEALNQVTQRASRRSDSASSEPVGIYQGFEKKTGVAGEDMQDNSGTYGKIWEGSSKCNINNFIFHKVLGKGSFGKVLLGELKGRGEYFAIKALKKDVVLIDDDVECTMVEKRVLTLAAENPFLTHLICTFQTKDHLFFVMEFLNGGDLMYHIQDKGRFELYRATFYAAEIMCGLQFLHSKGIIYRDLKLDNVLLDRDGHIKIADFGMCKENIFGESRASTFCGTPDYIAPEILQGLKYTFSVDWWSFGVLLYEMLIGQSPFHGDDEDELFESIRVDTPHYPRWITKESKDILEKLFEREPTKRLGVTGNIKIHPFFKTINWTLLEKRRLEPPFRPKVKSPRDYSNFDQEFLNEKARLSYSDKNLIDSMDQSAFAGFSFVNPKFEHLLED
Chain of PKN1/PRK1 (Q16512 whole entry): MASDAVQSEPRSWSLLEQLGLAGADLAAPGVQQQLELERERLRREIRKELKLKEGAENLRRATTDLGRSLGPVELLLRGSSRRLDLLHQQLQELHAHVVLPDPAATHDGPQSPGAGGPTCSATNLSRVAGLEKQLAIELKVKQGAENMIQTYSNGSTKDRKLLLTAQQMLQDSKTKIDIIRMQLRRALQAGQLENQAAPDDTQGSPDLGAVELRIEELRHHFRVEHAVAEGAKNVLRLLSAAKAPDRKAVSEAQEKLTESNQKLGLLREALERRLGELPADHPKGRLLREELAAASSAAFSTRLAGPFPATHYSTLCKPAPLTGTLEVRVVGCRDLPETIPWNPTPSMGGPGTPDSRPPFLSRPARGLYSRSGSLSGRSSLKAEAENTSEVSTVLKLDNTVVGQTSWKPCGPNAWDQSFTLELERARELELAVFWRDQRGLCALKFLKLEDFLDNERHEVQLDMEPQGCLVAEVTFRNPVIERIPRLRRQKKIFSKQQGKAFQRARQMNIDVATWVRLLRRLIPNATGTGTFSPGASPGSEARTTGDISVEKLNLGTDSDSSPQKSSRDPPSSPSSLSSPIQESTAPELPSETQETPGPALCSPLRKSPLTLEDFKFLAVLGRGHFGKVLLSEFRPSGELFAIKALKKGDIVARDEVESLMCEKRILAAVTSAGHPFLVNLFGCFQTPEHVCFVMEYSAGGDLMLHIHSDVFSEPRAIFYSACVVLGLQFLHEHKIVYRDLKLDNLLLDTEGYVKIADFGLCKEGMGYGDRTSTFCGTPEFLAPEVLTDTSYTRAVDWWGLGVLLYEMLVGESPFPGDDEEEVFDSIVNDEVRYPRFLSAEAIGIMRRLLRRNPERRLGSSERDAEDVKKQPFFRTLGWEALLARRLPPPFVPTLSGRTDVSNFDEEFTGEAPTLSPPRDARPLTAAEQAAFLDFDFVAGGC
T1 sequence (P10635 whole entry): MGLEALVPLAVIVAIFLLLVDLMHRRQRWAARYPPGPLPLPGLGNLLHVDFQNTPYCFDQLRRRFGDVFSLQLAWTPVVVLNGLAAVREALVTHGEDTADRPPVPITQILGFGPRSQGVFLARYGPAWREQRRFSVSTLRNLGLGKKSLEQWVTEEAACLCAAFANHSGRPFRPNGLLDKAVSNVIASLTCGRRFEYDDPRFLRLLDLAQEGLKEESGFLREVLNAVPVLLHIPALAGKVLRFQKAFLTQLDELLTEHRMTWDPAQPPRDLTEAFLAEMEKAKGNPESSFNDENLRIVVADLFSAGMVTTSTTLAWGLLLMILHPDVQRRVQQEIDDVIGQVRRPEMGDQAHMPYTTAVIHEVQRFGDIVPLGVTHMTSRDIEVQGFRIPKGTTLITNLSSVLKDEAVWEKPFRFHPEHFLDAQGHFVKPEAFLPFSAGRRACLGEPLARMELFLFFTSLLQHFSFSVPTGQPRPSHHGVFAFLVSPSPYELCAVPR
Chain of MAPKAPK2 (P49137 whole entry): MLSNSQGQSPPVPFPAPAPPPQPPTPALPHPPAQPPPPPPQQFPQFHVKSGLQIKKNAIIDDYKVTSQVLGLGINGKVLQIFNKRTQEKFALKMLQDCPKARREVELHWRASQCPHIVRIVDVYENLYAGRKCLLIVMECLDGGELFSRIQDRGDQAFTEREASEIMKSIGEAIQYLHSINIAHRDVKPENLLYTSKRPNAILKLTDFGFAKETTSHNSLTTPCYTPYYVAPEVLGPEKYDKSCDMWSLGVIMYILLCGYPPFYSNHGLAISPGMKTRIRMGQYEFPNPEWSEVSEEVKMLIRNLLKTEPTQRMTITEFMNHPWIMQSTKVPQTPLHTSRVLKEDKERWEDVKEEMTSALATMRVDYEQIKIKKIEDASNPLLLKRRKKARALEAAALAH

Take `COc1cc(-c2cncc(-c3ccc(N4CCN(C)CC4)cc3)c2C)cc(F)c1C(N)=O` [Compound 26a, 2-Fluoro-6-methoxy-4-(4-methyl-5-(4-(4-methylpiperazin-1-yl)phenyl)pyridin-3-yl)benzamide]: the “% enzyme activity” value on PKA worked out at 96.94%; on PKN1/PRK1, 96.76%; at MST3/STK24 it was 87.91%; on PKCd, 97.72%; at MAPKAPK5/PRAK, 90.60%; at DAPK2, 101.48%. Also, the “% enzyme activity” value on MAPKAPK2 was 101.22%; on RSK2, 99.92%. The half-maximal inhibitory concentration (IC50) (in general, the point on the concentration scale where inhibition reaches its midpoint) at CYP2D6 is > 50 µM. The remaining activity at 1 µM on MST1/STK4 turned out to be 101%; on MASTL, 99.3%; on MNK1, 51.1%; on CAMK1b it was 97.9%; on MLK3/MAP3K11, 99.4%.

On to `COc1cc(-c2cncc(-c3ccc(N4C[C@@H](C)N(C)[C@@H](C)C4)cc3)c2C)cc(F)c1C(N)=O` [Compound 26c, 2-Fluoro-6-methoxy-4-(4-methyl-5-(4-((3R,5S)-3,4,5-trimethylpiperazin-1-yl)phenyl)pyridin-3-yl)benzamide], for which the “% enzyme activity” value at PKA was determined as 95.62%; at PKN1/PRK1 it was 96.39%; on MST3/STK24, 94.57%; at PKCd it was 100.12%; on MAPKAPK5/PRAK, 94.46%; on DAPK2, 95.98%. The “% enzyme activity” value turned out to be 93.08% at MAPKAPK2 and 101.06% on RSK2. Also, the IC50 against CYP2D6 was > 50 µM. The remaining activity at 1 µM is 103% on MST1/STK4; 102% at MASTL; 71.4% at MNK1; 99.4% on CAMK1b; 96.7% at MLK3/MAP3K11.
